tested on: HCV genotype 1b replicon; experiment: HCV replicon assay (1b_Huh-Luc/Neo-ET cell line, luciferase readout); assay type: cell-based; settings: Hepatitis C virus, Huh-7, 72 h, read-out: Inhibition of HCV genotype 1b
Protocol: Biological activity of the compounds of the invention was determined using an HCV replicon assay. The 1b_Huh-Luc/Neo-ET cell line persistently expressing a bicistronic genotype 1b replicon in Huh 7 cells was obtained from ReBLikon GMBH. This cell line was used to test compound inhibition using luciferase enzyme activity readout as a measurement of compound inhibition of replicon levels.
On Day 1 (the day after plating), each compound is added in triplicate to the cells. Plates incubated for 72 h prior to running the luciferase assay. Enzyme activity was measured using a Bright-Glo Kit (cat. number E2620) manufactured by Promega Corporation. The following equation was used to generate a percent control value for each compound. % Control=(Average Compound Value/Average Control)*100
The EC50 value was determined using GraphPad Prism and the following equation: Y=Bottom+(Top−Bottom)/1+10^((Log IC50−X)*HillSlope))
EC50 values of compounds are repeated several times in the replicon assay.

SMILES | EC50 [nM]
COC(=O)N[C@H](C(=O)N1CCC[C@H]1c1ncc(-c2ccc(-c3ccc4cc(-c5c[nH]c([C@@H]6CCCN6C(=O)[C@@H](NC(=O)OC)[C@@H](C)OC)n5)ccc4n3)cc2)[nH]1)C(C)C [compound 40] | < 1
COC(=O)N[C@@H](C)C(=O)N1CCC[C@H]1c1nc(-c2ccc3nc(-c4ccc(-c5cnc([C@@H]6CCCN6C(=O)[C@@H](NC(=O)OC)C(C)C)[nH]5)cc4)ccc3c2)c[nH]1 [compound 41] | < 1
COC(=O)N[C@H](C(=O)N1CCC[C@H]1c1nc(-c2ccc3nc(-c4ccc(-c5cnc([C@@H]6CCCN6C(=O)[C@@H](NC(=O)OC)C6CCOCC6)[nH]5)cc4)ccc3c2)c[nH]1)C(C)C [compound 42] | < 1
COC(=O)N[C@H](C(=O)N1CCC[C@H]1c1nc(-c2ccc3nc(-c4ccc(-c5cnc([C@@H]6CCCN6C(=O)[C@@H](NC(=O)OC)[C@@H](C)OC)[nH]5)cc4)ccc3c2)c[nH]1)C(C)C [compound 43] | < 1
COC(=O)N[C@@H](C)C(=O)N1CCC[C@H]1c1ncc(-c2ccc(-c3ccc4cc(-c5c[nH]c([C@@H]6CCCN6C(=O)[C@@H](NC(=O)OC)C(C)C)n5)ccc4n3)cc2)[nH]1 [compound 44] | < 1
COC(=O)N[C@H](C(=O)N1CCC[C@H]1c1ncc(-c2ccc(-c3ccc4cc(-c5c[nH]c([C@@H]6CCCN6C(=O)[C@H](NC(=O)OC)c6ccccc6)n5)cnc4c3)cc2)[nH]1)C(C)C [compound 45] | < 1
COC(=O)N[C@H](C(=O)N1CCC[C@H]1c1nc(-c2ccc3cc(-c4ccc(-c5cnc([C@@H]6CCCN6C(=O)[C@@H](NC(=O)OC)C6CCOCC6)[nH]5)cc4)ccc3c2)c[nH]1)C(C)C [compound 46] | < 1
COC(=O)N[C@H](C(=O)N1CCC[C@H]1c1ncc(-c2ccc(-c3ccc4cc(-c5c[nH]c([C@@H]6CCCN6C(=O)[C@@H](NC(=O)OC)C6CCOCC6)n5)ccc4c3)cc2)[nH]1)C(C)C [compound 47] | < 1
COC(=O)N[C@H](C(=O)N1CCC[C@H]1c1ncc(-c2ccc(-c3ccc4cc(-c5c[nH]c([C@@H]6CCCN6C(=O)[C@H](NC(=O)OC)c6ccccc6)n5)ccc4c3)nc2)[nH]1)C(C)C [compound 48] | < 1
COC(=O)N[C@H](C(=O)N1CCC[C@H]1c1nc(-c2cnc3cc(-c4ccc(-c5cnc([C@@H]6CCCN6C(=O)[C@@H](NC(=O)OC)C6CCOCC6)[nH]5)cc4)ccc3c2)c[nH]1)C(C)C [compound 49] | < 1
COC(=O)N[C@H](C(=O)N1CCC[C@H]1c1ncc(-c2ccc(-c3ccc4cc(-c5c[nH]c([C@@H]6CCCN6C(=O)[C@@H](NC(=O)OC)C6CCOCC6)n5)cnc4c3)cc2)[nH]1)C(C)C [compound 50] | < 1
COC(=O)N[C@H](C(=O)N1CCC[C@H]1c1nc(-c2ccc3cc(-c4ccc(-c5cnc([C@@H]6CCCN6C(=O)[C@@H](NC(=O)OC)C6CCOCC6)[nH]5)cn4)ccc3c2)c[nH]1)C(C)C [compound 51] | < 1
COC(=O)N[C@H](C(=O)N1CCC[C@H]1c1ncc(-c2ccc(-c3ccc4cc(-c5c[nH]c([C@@H]6CCCN6C(=O)[C@@H](NC(=O)OC)C6CCOCC6)n5)ccc4c3)nc2)[nH]1)C(C)C [compound 52] | < 1
COC(=O)N[C@H](C(=O)N1CCC[C@H]1c1nc(-c2ccc3nc(-c4ccc(-c5cnc([C@@H]6CCCN6C(=O)[C@@H](NC(=O)OC)C(C)C)[nH]5)nc4)ccc3c2)c[nH]1)C(C)C [compound 53] | < 1
COC(=O)N[C@@H](C(=O)N1CCC[C@H]1c1nc(-c2ccc3nc(-c4ccc(-c5cnc([C@@H]6CCCN6C(=O)[C@H](NC(=O)OC)c6ccccc6)[nH]5)nc4)ccc3c2)c[nH]1)c1ccccc1 [compound 54] | < 1
COC(=O)N[C@H](C(=O)N1CCC[C@H]1c1nc(-c2ccc3cc(-c4ccc(-c5cnc([C@@H]6CCCN6C(=O)[C@H](NC(=O)OC)c6ccccc6)[nH]5)cn4)ccc3c2)c[nH]1)C(C)C [compound 56] | < 1
COC(=O)N[C@H](C(=O)N1CCC[C@H]1c1nc(-c2cnc3cc(-c4ccc(-c5cnc([C@@H]6CCCN6C(=O)[C@@H](NC(=O)OC)C(C)C)[nH]5)cc4F)ccc3c2)c[nH]1)C(C)C [compound 57] | < 1
COC(=O)N[C@H](C(=O)N1CCC[C@H]1c1ncc(-c2ccc(-c3ccc4cc(-c5c[nH]c([C@@H]6CCCN6C(=O)[C@H](NC(=O)OC)c6ccccc6)n5)cnc4c3)c(F)c2)[nH]1)C(C)C [compound 58] | < 1
COC(=O)N[C@H](C(=O)N1CCC[C@H]1c1ncc(-c2ccc(-c3ccc4cc(-c5c[nH]c([C@@H]6CCCN6C(=O)[C@@H](NC(=O)OC)C6CCOCC6)n5)cnc4c3)c(F)c2)[nH]1)C(C)C [compound 59] | < 1
COC(=O)N[C@H](C(=O)N1CCC[C@H]1c1ncc(-c2ccc(-c3ccc4cc(-c5c[nH]c([C@@H]6CCCN6C(=O)[C@H](NC(=O)OC)c6ccccc6)n5)cnc4c3)nc2)[nH]1)C(C)C [compound 60] | < 1

SMILES | EC50 [nM]
COC(=O)N[C@H](C(=O)N1CCC[C@H]1c1ncc(-c2ccc(-c3ccc4cc(-c5c[nH]c([C@@H]6CCCN6C(=O)[C@@H](NC(=O)OC)C6CCOCC6)n5)cnc4c3)nc2)[nH]1)C(C)C [compound 61] | < 1
COC(=O)N[C@H](C(=O)N1CCC[C@H]1c1nc(-c2cnc3cc(-c4ccc(-c5cnc([C@@H]6CCCN6C(=O)[C@@H](NC(=O)OC)C6CCOCC6)[nH]5)cn4)ccc3c2)c[nH]1)C(C)C [compound 62] | < 1
COC(=O)N[C@H](C(=O)N1CCC[C@H]1c1nc(-c2ccc3cc(-c4ccc(-c5cnc([C@@H]6CCCN6C(=O)[C@H](NC(=O)OC)c6ccccc6)[nH]5)nc4)ccc3c2)c[nH]1)C(C)C [compound 63] | < 1
COC(=O)N[C@H](C(=O)N1CCC[C@H]1c1nc(-c2ccc3cc(-c4ccc(-c5cnc([C@@H]6CCCN6C(=O)[C@H](NC(=O)OC)c6ccccc6)[nH]5)cc4F)ccc3c2)c[nH]1)C(C)C [compound 64] | < 1
COC(=O)N[C@H](C(=O)N1CCC[C@H]1c1nc(-c2ccc3cc(-c4ccc(-c5cnc([C@@H]6CCCN6C(=O)[C@@H](NC(=O)OC)C6CCOCC6)[nH]5)cc4F)ccc3c2)c[nH]1)C(C)C [compound 65] | < 1
COC(=O)N[C@H](C(=O)N1CCC[C@H]1c1nc(-c2ccc3cc(-c4ccc(-c5cnc([C@@H]6CCCN6C(=O)[C@@H](NC(=O)OC)C(C)C)[nH]5)cc4F)ccc3c2)c[nH]1)C(C)C [compound 66] | < 1
COC(=O)N[C@H](C(=O)N1CCC[C@H]1c1ncc(-c2ccc(-c3ccc4cc(-c5c[nH]c([C@@H]6CCCN6C(=O)[C@H](NC(=O)OC)c6ccccc6)n5)ccc4c3)c(F)c2)[nH]1)C(C)C [compound 67] | < 1
COC(=O)N[C@H](C(=O)N1CCC[C@H]1c1ncc(-c2ccc(-c3ccc4cc(-c5c[nH]c([C@@H]6CCCN6C(=O)[C@@H](NC(=O)OC)C6CCOCC6)n5)ccc4c3)c(F)c2)[nH]1)C(C)C [compound 68] | < 1
COC(=O)N[C@H](C(=O)N1CCC[C@H]1c1nc(-c2ccc3cc(-c4ccc(-c5cnc([C@@H]6CCCN6C(=O)[C@H](NC(=O)OC)c6ccccc6)[nH]5)cc4C)ccc3c2)c[nH]1)C(C)C [compound 69] | < 1
COC(=O)N[C@H](C(=O)N1CCC[C@H]1c1ncc(-c2ccc(-c3ccc4cc(-c5c[nH]c([C@@H]6CCCN6C(=O)[C@H](NC(=O)OC(C)(C)C)c6ccccc6)n5)ccc4n3)cn2)[nH]1)C(C)C [compound 70] | < 1
COC(=O)N[C@H](C(=O)N1CCC[C@H]1c1nc(-c2cnc3cc(-c4ccc(-c5cnc([C@@H]6CCCN6C(=O)[C@H](NC(=O)OC)c6ccccc6)[nH]5)cc4)ccc3c2)c[nH]1)C1CCOCC1 [compound 71] | < 1
COC(=O)N[C@H](C(=O)N1CCC[C@H]1c1nc(-c2cnc3cc(-c4ccc(-c5cnc([C@@H]6CCCN6C(=O)[C@H](NC(=O)OC(C)(C)C)c6ccccc6)[nH]5)cc4)ccc3c2)c[nH]1)C1CCOCC1 [compound 72] | < 1
COC(=O)N[C@H](C(=O)N1CCC[C@H]1c1nc(-c2cnc3cc(-c4ccc(-c5cnc([C@@H]6CCCN6C(=O)[C@@H](NC(=O)OC)C6CCOCC6)[nH]5)cc4)ccc3c2)c[nH]1)C1CCOCC1 [compound 73] | < 1
COC(=O)N[C@H](C(=O)N1CCC[C@H]1c1nc(-c2cnc3cc(-c4ccc(-c5cnc([C@@H]6CCCN6C(=O)[C@@H](NC(=O)OC)C(C)C)[nH]5)cn4)ccc3c2)c[nH]1)C(C)C [compound 74] | < 1
COC(=O)N[C@H](C(=O)N1CCC[C@H]1c1nc(-c2cnc3cc(-c4ccc(-c5cnc([C@@H]6CCCN6C(=O)[C@@H](NC(=O)OC)C6CCOCC6)[nH]5)cn4)ccc3c2)c[nH]1)C1CCOCC1 [compound 75] | < 1
COC(=O)N[C@H](C(=O)N1CCC[C@H]1c1nc(-c2ccc3[nH]c(-c4ccc(-c5cnc([C@@H]6CCCN6C(=O)[C@@H](NC(=O)OC)C(C)C)[nH]5)cc4)cc(=O)c3c2)c[nH]1)C(C)C [compound 76] | < 1
COC(=O)N[C@@H](C(=O)N1CCC[C@H]1c1nc(-c2ccc3[nH]c(-c4ccc(-c5cnc([C@@H]6CCCN6C(=O)[C@H](NC(=O)OC)c6ccccc6)[nH]5)cc4)cc(=O)c3c2)c[nH]1)c1ccccc1 [compound 77] | 10 to 999
COC(=O)N[C@@H](C(=O)N1CCC[C@H]1c1nc(-c2ccc3nc(-c4ccc(-c5cnc([C@@H]6CCCN6C(=O)[C@H](NC(=O)OC)c6ccccc6)[nH]5)cc4)cc(OC)c3c2)c[nH]1)c1ccccc1 [compound 78] | < 1
COC(=O)N[C@H](C(=O)N1CCC[C@H]1c1nc(-c2ccc3nc(-c4ccc(-c5cnc([C@@H]6CCCN6C(=O)[C@@H](NC(=O)OC)C(C)C)[nH]5)cc4)cc(OC)c3c2)c[nH]1)C(C)C [compound 79] | < 1

Reference: patent US8618151B2, “Inhibitors of HCV NS5A” (Presidio Pharmaceuticals, Inc., priority 2008, dated 2013)
